Assay results taken from US20020132853A1, “Capsaicin receptor ligands” (priority 2000, published 2002).

target: T1, human capsaicin receptor (Homo sapiens, UniProt Q8NER1); assay: Antagonist assay for Capsaicin receptor mediated calcium mobilization; type: cell-based; details: Table III, read-out: EC50 (the source's name)
T1 construct: expression consrtuct encoding the full length human capsaicin receptor; expressed in transfected cells
Procedure, shortened: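 Cells expressing human capsaicin receptor, loaded with Fluo-3 AM, were preincubated 0.5–6 h at room temperature in the dark with test compound at 1–5 μM final in KRH buffer (pH 7.4, 2 mM CaCl2, probenecid). Capsaicin at its EC50 was then added via FLIPR; IC50 is the antagonist concentration halving the calcium signal.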

T1 sequence (Q8NER1 whole entry): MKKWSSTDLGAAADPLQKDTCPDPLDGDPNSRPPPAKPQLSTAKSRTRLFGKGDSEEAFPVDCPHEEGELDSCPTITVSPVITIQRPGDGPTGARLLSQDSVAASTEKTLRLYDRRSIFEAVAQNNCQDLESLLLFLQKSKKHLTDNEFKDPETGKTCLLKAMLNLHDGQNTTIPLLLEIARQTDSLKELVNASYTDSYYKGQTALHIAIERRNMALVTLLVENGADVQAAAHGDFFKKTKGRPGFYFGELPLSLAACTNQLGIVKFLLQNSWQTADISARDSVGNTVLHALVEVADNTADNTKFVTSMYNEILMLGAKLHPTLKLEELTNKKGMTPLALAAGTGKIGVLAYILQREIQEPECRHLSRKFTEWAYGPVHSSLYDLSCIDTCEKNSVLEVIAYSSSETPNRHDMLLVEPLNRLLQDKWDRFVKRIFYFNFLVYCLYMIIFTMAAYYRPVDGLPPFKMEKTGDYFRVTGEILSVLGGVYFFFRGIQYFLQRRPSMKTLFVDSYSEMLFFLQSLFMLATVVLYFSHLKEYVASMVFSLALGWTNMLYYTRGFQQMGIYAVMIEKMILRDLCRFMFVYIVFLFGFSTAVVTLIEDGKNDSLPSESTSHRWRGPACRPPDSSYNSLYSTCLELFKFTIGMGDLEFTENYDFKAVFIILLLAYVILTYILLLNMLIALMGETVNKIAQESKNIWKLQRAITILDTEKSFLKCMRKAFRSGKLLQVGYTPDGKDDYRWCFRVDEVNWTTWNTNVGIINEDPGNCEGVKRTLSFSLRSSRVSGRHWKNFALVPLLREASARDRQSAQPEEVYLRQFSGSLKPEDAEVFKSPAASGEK

IC50 | Structure (SMILES)
< 1000 nM | CC(C)(C)C1CN(c2ncccc2C(F)(F)F)CCN1C(=O)Nc1ccc(C(F)(F)F)cc1 (stereo not shown) [Compound 68, 2-tert-butyl-N-[4-(trifluoromethyl)phenyl]-4-[3-(trifluoromethyl)pyridin-2-yl]piperazine-1-carboxamide]
< 1000 nM | COc1cccnc1N1CCN(C(=O)Nc2ccc(C3CCCCC3)cc2)[C@H](C)C1 [Compound 47, (2R)-N-(4-cyclohexylphenyl)-4-(3-methoxypyridin-2-yl)-2-methylpiperazine-1-carboxamide]
< 1000 nM | CC(C)c1ccc(NC(=O)N2C(C)CN(c3ncccc3Cl)CC2C)cc1 (stereo not shown) [Compound 33, 4-(3-chloropyridin-2-yl)-N-(4-isopropylphenyl)-2,6-dimethylpiperazine-1-carboxamide]
< 1000 nM | COCC(C)(C)c1ccc(NC(=O)N2CCN(c3ncccc3C(F)(F)F)C[C@H]2C)cc1 [Compound 55, (2R)-N-[4-(2-methoxy-1,1-dimethylethyl)phenyl]-2-methyl-4-[3-(trifluoromethyl)pyridin-2-yl]piperazine-1-carboxamide]
< 1000 nM | C[C@@H]1CN(c2ncccc2Cl)CCN1C(=O)Nc1ccc(C2(O)CCOCC2)cc1 [Compound 50, (2R)-4-(3-chloropyridin-2-yl)-N-[4-(4-hydroxytetrahydro-2H-pyran-4-yl)phenyl]-2-methylpiperazine-1-carboxamide]

same assay, conditions: Table IV, read-out: EC50 (the source's name)

IC50 | Structure (SMILES)
< 1000 nM | C[C@@H]1CN(c2ncccc2Cl)CCN1C(=O)Nc1ccc(C(F)(F)F)nc1 [Compound 98, (2R)-4-(3-chloropyridin-2-yl)-2-methyl-N-[6-(trifluoromethyl)pyridin-3-yl]piperazine-1-carboxamide]

same assay, conditions: Table V, read-out: EC50 (the source's name)

IC50 | Structure (SMILES)
< 1000 nM | C[C@@H]1CN(c2ncccc2C(F)(F)F)CCN1C(=O)Nc1ccc2c(c1)Cc1ccccc1-2 [Compound 143, (2R)-N-(9H-fluoren-2-yl)-2-methyl-4-[3-(trifluoromethyl)pyridin-2-yl]piperazine-1-carboxamide]
< 1000 nM | C[C@@H]1CN(c2ncccc2C(F)(F)F)CCN1C(=O)Nc1ccc(C(F)(C(F)(F)F)C(F)(F)F)cc1 [Compound 163, (2R)-2-methyl-N-{4-[1,2,2,2-tetrafluoro-1-(trifluoromethyl)ethyl]phenyl}-4-[3-(trifluoromethyl)pyridin-2-yl]piperazine-1-carboxamide]
< 1000 nM | C[C@@H]1CN(c2ncccc2Cl)CCN1C(=O)Nc1ccc(C(C#N)c2ccccc2)cc1 (stereo partly drawn) [Compound 120, (2R)-4-(3-chloropyridin-2-yl)-N-[4-[cyano(phenyl)methyl]phenyl]-2-methylpiperazine-1-carboxamide]
< 1000 nM | O=C(Nc1cccc(Cl)c1)N1CCN(c2cc(C(F)(F)F)ccn2)CC1 [Compound 109, N-(3-chlorophenyl)-4-[4-(trifluoromethyl)pyridin-2-yl]piperazine-1-carboxamide]
< 1000 nM | C[C@@H]1CN(c2ncccc2Cl)CCN1C(=O)Nc1cccc(I)c1 [Compound 150, (2R)-4-(3-chloropyridin-2-yl)-N-(3-iodophenyl)-2-methylpiperazine-1-carboxamide]
< 1000 nM | O=C(Nc1ccc(Cl)cc1)N1CCN(c2cc(C(F)(F)F)ccn2)CC1 [Compound 107, N-(4-chlorophenyl)-4-[4-(trifluoromethyl)pyridin-2-yl]piperazine-1-carboxamide]
< 1000 nM | O=C(Nc1ccc(Cl)c([N+](=O)[O-])c1)N1CCN(c2ncccc2C(F)(F)F)CC1 [Compound 118, N-(4-chloro-3-nitrophenyl)-4-[3-(trifluoromethyl)pyridin-2-yl]piperazine-1-carboxamide]
< 1000 nM | Cc1cc(NC(=O)N2CCN(c3ncccc3Cl)C[C@H]2C)ccc1C(F)(F)F [Compound 121, (2R)-4-(3-chloropyridin-2-yl)-2-methyl-N-[3-methyl-4-(trifluoromethyl)phenyl]piperazine-1-carboxamide]

same assay, conditions: Table VI, read-out: EC50 (the source's name)

IC50 | Structure (SMILES)
< 1000 nM | C[C@@H]1CN(c2ncccc2Cl)CCN1C(=O)Oc1ccc(C(C)(C)C)cc1 [Compound 173]
< 1000 nM | C[C@H]1CN(c2ncccc2Cl)CCN1C(=S)Nc1ccc(C(C)(C)C)cc1 [Compound 171]
